For 7 compounds, MIC50 results are on record in ChEMBL document CHEMBL5038624, “Construction and activity evaluation of novel dual-target (SE/CYP51) anti-fungal agents containing amide naphthyl structure” (Eur J Med Chem, 2022).

Values after ≈ are worked out from the molar mass of the structure shown.

Usually MIC50 stands for an inhibitory concentration at the 50% level, which refers to growth in some studies and to a panel of isolates in others.

One test deals with Pichia kudriavzevii. The experiment in a line: Antifungal activity against Candida krusei ATCC 6258 assessed as reduction in fungal growth incubated for 72 hrs by CLSI protocol based broth microdilution method. Type of test: functional. For orientation: Dilution methods test growth across graded concentrations, often in twofold steps.
Consider `O=C(NC(Cn1cncn1)c1ccccc1)c1ccc2ccccc2c1` (stereo not given), for which the MIC50 came out at 0.5 µg/mL (≈ 1.46 µM).

Take `O=C(/C=C/c1ccc2ccccc2c1)NC(Cn1ccnc1)c1ccccc1` (stereo not given): the MIC50 came to 1 µg/mL (≈ 2.72 µM).

With `O=C(/C=C/c1ccc2ccccc2c1)NC(Cn1cncn1)c1ccccc1` (stereo not given), the MIC50 stood at 0.5 µg/mL (≈ 1.36 µM).

With `O=C(/C=C/c1ccc2ccccc2c1)NC(Cn1ccnc1)C(=O)c1ccccc1` (stereo not given), the MIC50 is 0.5 µg/mL (≈ 1.26 µM).

Regarding `O=C(NC(Cn1ccnc1)c1ccccc1)c1cccc2ccccc12` (stereo not given), the MIC50 is 1 µg/mL (≈ 2.93 µM).

As to `O=C(/C=C/c1ccc2ccccc2c1)NC(C(=O)NCc1ccncc1)c1ccccc1` (stereo not given), the MIC50 is 2 µg/mL (≈ 4.74 µM).

On to `O=C(NC(Cn1ccnc1)C(=O)c1ccccc1)c1ccc2ccccc2c1` (stereo not given), for which the MIC50 is 0.5 µg/mL (≈ 1.35 µM).

Another test relates to Aspergillus fumigatus. Kind of test: Antifungal activity against Aspergillus fumigatus KM8001 assessed as reduction in fungal growth incubated for 72 hrs by CLSI protocol based broth microdilution method. The test is classed as functional.
As to `O=C(NC(Cn1cncn1)c1ccccc1)c1ccc2ccccc2c1` (stereo not given), the MIC50 came out at 4 µg/mL (≈ 11.7 µM).

With `O=C(/C=C/c1ccc2ccccc2c1)NC(Cn1ccnc1)c1ccccc1` (stereo not given), the MIC50 came to 4 µg/mL (≈ 10.9 µM).

In the case of `O=C(/C=C/c1ccc2ccccc2c1)NC(Cn1cncn1)c1ccccc1` (stereo not given), the MIC50 is over 8 µg/mL.

For the compound `O=C(/C=C/c1ccc2ccccc2c1)NC(Cn1ccnc1)C(=O)c1ccccc1` (stereo not given), the MIC50 was over 8 µg/mL.

Take `O=C(NC(Cn1ccnc1)c1ccccc1)c1cccc2ccccc12` (stereo not given): the MIC50 was over 8 µg/mL.

Regarding `O=C(/C=C/c1ccc2ccccc2c1)NC(C(=O)NCc1ccncc1)c1ccccc1` (stereo not given), the MIC50 is over 8 µg/mL.

Turning to `O=C(NC(Cn1ccnc1)C(=O)c1ccccc1)c1ccc2ccccc2c1` (stereo not given), the MIC50 is over 8 µg/mL.

The next test relates to Candida albicans. The experiment in a line: Antifungal activity against Candida albicans SC5314 assessed as reduction in fungal growth incubated for 72 hrs by CLSI protocol based broth microdilution method. The test is classed as functional.
`O=C(NC(Cn1cncn1)c1ccccc1)c1ccc2ccccc2c1` (stereo not given): the MIC50 turned out to be 0.5 µg/mL (≈ 1.46 µM).

As for `O=C(/C=C/c1ccc2ccccc2c1)NC(Cn1ccnc1)c1ccccc1` (stereo not given), the MIC50 was 0.5 µg/mL (≈ 1.36 µM).

For `O=C(/C=C/c1ccc2ccccc2c1)NC(Cn1cncn1)c1ccccc1` (stereo not given), the MIC50 came to 0.25 µg/mL (≈ 0.679 µM).

Turning to `O=C(/C=C/c1ccc2ccccc2c1)NC(Cn1ccnc1)C(=O)c1ccccc1` (stereo not given), the MIC50 turned out to be 0.5 µg/mL (≈ 1.26 µM).

Consider `O=C(NC(Cn1ccnc1)c1ccccc1)c1cccc2ccccc12` (stereo not given), for which the MIC50 was determined as 0.5 µg/mL (≈ 1.46 µM).

`O=C(/C=C/c1ccc2ccccc2c1)NC(C(=O)NCc1ccncc1)c1ccccc1` (stereo not given): the MIC50 came to 1 µg/mL (≈ 2.37 µM).

Consider `O=C(NC(Cn1ccnc1)C(=O)c1ccccc1)c1ccc2ccccc2c1` (stereo not given), for which the MIC50 came out at 0.125 µg/mL (≈ 0.338 µM).

In the next test the test system is Nakaseomyces glabratus. Kind of test: Antifungal activity against Candida glabrata ATCC 0001 assessed as reduction in fungal growth incubated for 72 hrs by CLSI protocol based broth microdilution method. Type of test: functional.
Consider `O=C(NC(Cn1cncn1)c1ccccc1)c1ccc2ccccc2c1` (stereo not given), for which the MIC50 turned out to be 1 µg/mL (≈ 2.92 µM).

Consider `O=C(/C=C/c1ccc2ccccc2c1)NC(Cn1ccnc1)c1ccccc1` (stereo not given), for which the MIC50 was 0.5 µg/mL (≈ 1.36 µM).

`O=C(/C=C/c1ccc2ccccc2c1)NC(Cn1cncn1)c1ccccc1` (stereo not given): the MIC50 was determined as 0.5 µg/mL (≈ 1.36 µM).

`O=C(/C=C/c1ccc2ccccc2c1)NC(Cn1ccnc1)C(=O)c1ccccc1` (stereo not given): the MIC50 was 0.25 µg/mL (≈ 0.632 µM).

As to `O=C(NC(Cn1ccnc1)c1ccccc1)c1cccc2ccccc12` (stereo not given), the MIC50 was 1 µg/mL (≈ 2.93 µM).

Consider `O=C(/C=C/c1ccc2ccccc2c1)NC(C(=O)NCc1ccncc1)c1ccccc1` (stereo not given), for which the MIC50 is 1 µg/mL (≈ 2.37 µM).

On to `O=C(NC(Cn1ccnc1)C(=O)c1ccccc1)c1ccc2ccccc2c1` (stereo not given), for which the MIC50 amounted to 0.25 µg/mL (≈ 0.677 µM).

The subject of another test is Candida tropicalis. The experiment in a line: Antifungal activity against Candida tropicalis ATCC 1369 assessed as reduction in fungal growth incubated for 72 hrs by CLSI protocol based broth microdilution method. The test is classed as functional.
As to `O=C(NC(Cn1cncn1)c1ccccc1)c1ccc2ccccc2c1` (stereo not given), the MIC50 came out at 0.5 µg/mL (≈ 1.46 µM).

Consider `O=C(/C=C/c1ccc2ccccc2c1)NC(Cn1ccnc1)c1ccccc1` (stereo not given), for which the MIC50 came to 0.5 µg/mL (≈ 1.36 µM).

With `O=C(/C=C/c1ccc2ccccc2c1)NC(Cn1cncn1)c1ccccc1` (stereo not given), the MIC50 amounted to 0.25 µg/mL (≈ 0.679 µM).

In the case of `O=C(/C=C/c1ccc2ccccc2c1)NC(Cn1ccnc1)C(=O)c1ccccc1` (stereo not given), the MIC50 amounted to 0.25 µg/mL (≈ 0.632 µM).

For `O=C(NC(Cn1ccnc1)c1ccccc1)c1cccc2ccccc12` (stereo not given), the MIC50 amounted to 0.5 µg/mL (≈ 1.46 µM).

In the case of `O=C(/C=C/c1ccc2ccccc2c1)NC(C(=O)NCc1ccncc1)c1ccccc1` (stereo not given), the MIC50 was found to be 1 µg/mL (≈ 2.37 µM).

For `O=C(NC(Cn1ccnc1)C(=O)c1ccccc1)c1ccc2ccccc2c1` (stereo not given), the MIC50 was 0.5 µg/mL (≈ 1.35 µM).
